Test results published in US9066938B2, “GPBP-1 inhibition and its therapeutic use” (Fibrostatin S.L., priority 2012, dated 2015).

system: A549 cells; experiment: not given; type: cell-based; details: 50 μM
Experimental: FIG. 2. […] Cells were seeded in 96-well plates and treated with the indicated compound combinations. The cellular viability (cell number) was measured with alamarBlue® and arbitrary units of fluorescence after 36 h of treatment (vertical axis).
FIG. 7. […] A549 cells were seeded on 96-well culture plates and after 4 h were treated with the indicated concentrations of doxorubicin in absence or presence of T12 (50 μM) and/or CFTR-inhibitor-172 (25 μM). Cells were cultured for additional 36 h and cell viability assessed as in FIG. 2.
A549 human lung adenocarcinoma cancer cells (CLS Cell Lines Service) were used as an ex vivo model for the assessment of anti-tumor activity of specific compounds. Unless otherwise indicated A549 cells were cultured in DMEM: Ham's F12 medium supplemented with 2 mM L-glutamine and 10% fetal bovine serum. A549 cells resistant to doxorubicin (A549-DR) were obtained treating cells with 1 μM for 4 weeks. A549 cells were transfected with a plasmid that expresses GPBP-1 and further selected with G418 (Invitrogen) to obtain a cell line (A549-GPBP) that constitutively expresses GPBP-1.
Cytotoxicity assays were performed with alamarBlue® reagent (Invitrogen) according to manufacturer's instructions. A549 cells were seeded on 96-well culture plates (7,500 cells/well) and allowed to settle during 4 h. Then, cells were cultured with individual peptidomimetics at concentrations ranging from 0 to 50 μM, in presence of doxorubicin at concentrations ranging from 0 to 10 μM for 36 h. JLSM cells were harvested by treatment with 0.25% trypsin (Lonza) and plated on collagen I coated 96-well black culture plate (Perkin Elmer) at a density of 10.000 cells per cm^2. After 4 h settling, cells were treated with different peptidomimetics (with or without doxorubicin) for 36 h. Subsequently alamarBlue® reagent was added and incubation maintained for 3 h. Fluorescence was measured using 560EX nm/590EM nm filter settings with a SpectraMax GeminiXPS (Molecular Devices). Blank wells containing media were used to determine background fluorescence.
The activity shown for each compound in Table 1 is the factor by which doxorubicin LC50 is reduced by the compound at a 50-μM concentration in A549 cell cultures. […] The symbols −, −/+, +, ++, +++, ++++ in the third column are used to show relative activities of compounds in a simplified way.

Row | Compound | toxicity of the compound by itself in A549 cultures
1 | CCOC(=O)CCc1cc(O)ccc1-c1ccc(-c2cccnc2)c(CO)c1 [13c] | significantly toxic
2 | CCCOc1ccc(-c2ccc(-c3cccc(C)c3)c(C)c2)c(CCC(=O)O)c1 [24a] | significantly toxic
3 | CCCOc1ccc(-c2ccc(-c3cccc(C(F)(F)F)c3)c(C)c2)c(CCC(=O)O)c1 [24c] | significantly toxic

same assay, conditions: CFTR-inhibitor-172 25 μM, T12 50 μM, 36 h

Row | Compound | cell viability in cultures treated with T12 with or without doxorubicin
4 | O=C(O)c1ccc(C=C2SC(=S)N(c3cccc(C(F)(F)F)c3)C2=O)cc1 [CFTR/ABCC7 inhibitor 172, 3-[(3-Trifluoromethyl)phenyl]-5-[(4-carboxyphenyl)methylene]-2-thioxo-4-thiazolidinone, reference compound] | significantly reduced cell viability

same assay, conditions: compound at 10 μM, A549 cell cultures

Row | Compound | Activity as enhancer of doxorubicin-induced cell death, relative activity symbol
5 | CCOC(=O)CCc1cc(O)ccc1-c1ccc(-c2cccnc2)c(CO)c1 [13c] | +
6 | CCCOc1ccc(-c2ccc(-c3cccc(C(F)(F)F)c3)c(C)c2)c(CCC(=O)O)c1 [24c] | ++

same assay, conditions: compound at 25 μM, A549 cell cultures

Row | Compound | Activity as enhancer of doxorubicin-induced cell death, relative activity symbol
7 | CCCOc1ccc(-c2ccc(-c3cccc(C)c3)c(C)c2)c(CCC(=O)O)c1 [24a] | ++
8 | COc1ccc(-c2ccc(-c3ccc(OC)c(Cl)c3)c(C)c2)c(CCC(=O)O)c1 [T55] | ++++

same assay, conditions: compound at 50 μM, A549 cell cultures

Row | Compound | Activity as enhancer of doxorubicin-induced cell death, relative activity symbol
9 | Cc1cccc(-c2ccc(-c3ccc(O)cc3CCC(=O)O)cc2CO)c1 | −/+
10 | Cc1cccc(-c2ccc(-c3ccc(O)cc3CCC(=O)O)cc2C)c1 | ++
11 | Cc1cccc(-c2ccc(-c3ccc(O)cc3CCC(=O)O)cc2CF)c1 | ++
12 | Cc1cccc(-c2ccc(-c3ccc(O)cc3CCC(=O)O)cc2C(F)F)c1 | ++
13 | COc1ccc(-c2ccc(-c3cccc(C)c3)c(CO)c2)c(CCC(=O)O)c1 | −/+
14 | O=C(O)CCc1cc(O)ccc1-c1ccc(-c2cccc(C(F)(F)F)c2)c(CO)c1 | −
15 | Cc1cc(-c2ccc(O)cc2CCC(=O)O)ccc1-c1cccc(C(F)(F)F)c1 | +
16 | O=C(O)CCc1cc(O)ccc1-c1ccc(-c2cccc(C(F)(F)F)c2)c(CF)c1 | ++++
17 | O=C(O)CCc1cc(O)ccc1-c1ccc(-c2cccc(C(F)(F)F)c2)c(C(F)F)c1 | ++
18 | COc1ccc(-c2ccc(-c3cccc(C(F)(F)F)c3)c(CO)c2)c(CCC(=O)O)c1 | +
19 | COc1ccc(-c2ccc(-c3cccc(C(F)(F)F)c3)c(C)c2)c(CCC(=O)O)c1 | +++
20 | O=C(O)CCc1cc(O)ccc1-c1ccc(-c2cccnc2)c(CO)c1 | +
21 | O=C(O)CCc1cc(O)ccc1-c1ccc(-c2cccnc2)c(CF)c1 | +
22 | O=C(O)CCc1cc(O)ccc1-c1ccc(-c2cccnc2)c(C(F)F)c1 | +
23 | C[n+]1cccc(-c2ccc(-c3ccc(O)cc3CCC(=O)[O-])cc2CO)c1 | −
24 | COc1ccc(-c2ccc(-c3cccnc3)c(CO)c2)c(CCC(=O)O)c1 | −
25 | COc1ccc(-c2ccc(-c3cccnc3)c(C)c2)c(CCC(=O)O)c1 | ++++
26 | COc1ccc(-c2ccc(-c3cccnc3)c(CF)c2)c(CCC(=O)O)c1 | +++
27 | Cc1cccc(-c2ccc(-c3ccc(OCC(=O)O)cc3CCC(=O)O)cc2C)c1 | −
28 | CCCCCCCCCCCCCCCC(=O)Oc1ccc(-c2ccc(-c3cccc(C)c3)c(C)c2)c(CCC(=O)O)c1 | −
29 | CCOC(=O)CCc1cc(O)ccc1-c1ccc(-c2cccc(C(F)(F)F)c2)c(C)c1 | −?
30 | Cc1cccc(-c2ccc(-c3ccc(O)cc3C(C)C)cc2CCC(=O)O)c1 | +
31 | Cc1cccc(-c2ccc(-c3ccc(O)cc3CCO)cc2CCC(=O)O)c1 | +
32 | COc1ccc(-c2ccc(-c3ccc(OC)c(C)c3)c(C)c2)c(CCC(=O)O)c1 | ++++

system: CSC derived from a uterine cancer; experiment: Sensitivity of CSC derived from a uterine cancer; type: cell-based; details: data not shown

Row | Compound | sensitivity of uterine cancer CSC to the compound
33 | COc1ccc(-c2ccc(-c3ccc(OC)c(Cl)c3)c(C)c2)c(CCC(=O)O)c1 [T55] | highly sensitive

target: T1, human recombinant GPBP-1 (Homo sapiens, UniProt Q9Y5P4); experiment: not given; details: Saus et al. 2008, 2010; cited from earlier work
T1 construct: made in house; host or cells: Pichia pastoris
T1 sequence (Q9Y5P4 1-624): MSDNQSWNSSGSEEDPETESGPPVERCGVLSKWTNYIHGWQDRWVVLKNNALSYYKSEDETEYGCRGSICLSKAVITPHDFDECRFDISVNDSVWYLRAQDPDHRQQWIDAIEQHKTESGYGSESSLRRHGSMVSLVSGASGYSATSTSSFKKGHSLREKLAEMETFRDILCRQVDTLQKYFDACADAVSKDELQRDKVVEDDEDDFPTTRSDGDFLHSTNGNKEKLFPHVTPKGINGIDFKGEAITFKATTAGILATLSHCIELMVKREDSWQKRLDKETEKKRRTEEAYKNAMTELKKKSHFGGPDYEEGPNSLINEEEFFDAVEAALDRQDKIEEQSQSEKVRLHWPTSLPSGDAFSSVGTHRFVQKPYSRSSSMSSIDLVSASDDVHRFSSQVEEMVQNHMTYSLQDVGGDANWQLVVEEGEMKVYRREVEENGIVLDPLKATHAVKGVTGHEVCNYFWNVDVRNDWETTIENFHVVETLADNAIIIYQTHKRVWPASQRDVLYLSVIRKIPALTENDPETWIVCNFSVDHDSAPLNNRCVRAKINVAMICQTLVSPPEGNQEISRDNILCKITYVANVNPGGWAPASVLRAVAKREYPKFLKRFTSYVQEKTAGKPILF

Row | Compound | inhibition of GPBP-1 kinase activity
34 | LATLSHCIELMVKR (SEQ ID NO: 8) [Q2, isolated peptide representing 260SHCIE264 and flanking regions of GPBP-1] | efficiently inhibits
